Where two headings read alike, the source gives them in different places.
Assays:
5-HT1Dα = target: T1, 5-HT1Dα (Homo sapiens, UniProt P28221); assay: Binding affinity, inhibition of 3H-5-HT binding, 5-HT1Dα; conditions: 1 h, 100 nm, 60 minute at 22° C., mean of triplicate determinations
T1 construct: expressed in transfected cells
Experimental: (§1) Compounds of the previous examples, as well as reference compounds, were evaluated for binding affinity using cell types receptive specifically to 5-HT1Dα and 5-HT1Dβ ligands. The assay protocol generally entailed the incubation of membranes prepared from cells expressing the 1Dβ or 1Dα sub-type of 5-HT receptors, with ^3 H-5-HT. The test compound was incubated at 100 nm concentration with the radioligand and the membrane homogenates prepared from the recombinant cells. After a 60 minute incubation at 22° C., the incubation was terminated by vacuum filtration. The filters were washed with buffer and counted for radioactivity using liquid scintillation spectrometry. The affinity of the test compound for the 5-HT1Dβ or 5-HT1Dα receptor estimated by its inhibition of binding of the radioligand to the receptor. The result is expressed desciptively as percent inhibition of binding. Each value is the mean of triplicate determinations. For comparison, sumatriptan was also evaluated. The results are presented in Table 2 below, with reference to the compound numbers of Table 1 and the specific synthesis examples given above.

5-HT1Dβ = target: T2, 5-HT1Dβ (Homo sapiens, UniProt P28222); assay: Binding affinity, inhibition of 3H-5-HT binding, 5-HT1Dβ; conditions: 1 h, 100 nm, 60 minute at 22° C., mean of triplicate determinations
T2 construct: expressed in transfected cells
Experimental: as §1, with “determinations.” for “determinations. For comparison, sumatriptan was also evaluated. The results are presented in Table 2 below, with reference to the compound numbers of Table 1 and the specific synthesis examples given above.”

5-HT1D receptor = target: T3, 5-HT1D receptor (Oryctolagus cuniculus, UniProt P49144); assay: Agonist assay, contraction of rabbit isolated saphenous vein; design: species or system rabbit (male New Zealand White)
T3 construct: Ring segments of the vein (4-5 mm in length) were cut and the endothelium gently removed; from tissue; host or cells: rabbit saphenous vein rings, endothelium removed
Experimental: Tissues were obtained from male New Zealand White rabbits (c. 3-4 kg) which were sacrificed by an overdose of pentobarbitol. The saphenous veins from both the left and right side were cleaned of fat and connective tissue and placed in Krebs solution (118 mM NaCl, 11 mM glucose, 25 mM NaHCO3, 4,7 mM KCl, 2.5 mM CaCl2 2H2 O, 1.2 mM KH2 PO4 and 1.2 mM MgSO4 7H2 O). Ring segments of the vein (4-5 mm in length) were cut and the endothelium gently removed. The segments were mounted in 10 mL baths containing Krebs buffer and were constantly aerated with 95% oxygen/5% carbon dioxide and maintained at 37° C. and pH 7.4 in order to record the isometric tension. A resting tension of 2.5 g was applied and the tissues allowed to equilibrate for 90 minutes, with washing every 15-20 minutes. After the equilibrium period, the rings were depolarized by addition of two aliquots of KCl (80 mM final concentration)separated by a 20 minute washing period. The tissues were then exposed to prazosin, idazoxan and indomethacin (all 1 μM in final concentration) for 30 minutes in order to exclude the actions of α1 - and α2 -adrenergic receptors and prostaglandin receptors respectively. […] Responses were calculated as a percentage of the maximal contraction evoked by 80 mM KCl. Only one compound was tested per preparation.
EC50 represents the concentration of the compound which causes 50% of the maximum contraction effected by it.

5-HT1 receptor = conditions: WO 93/21178, Example 67; cited from earlier work
5-HT1F = conditions: prior art; cited from earlier work
5-HT1D = conditions: prior art; cited from earlier work
other 5-HT receptors = conditions: prior art; cited from earlier work
[1] = rabbit isolated saphenous vein, 50% of the maximum contraction effected by the compound, with prazosin, idazoxan, indomethacin 1 μM, read-out: EC50

T1 sequence (P28221 whole entry): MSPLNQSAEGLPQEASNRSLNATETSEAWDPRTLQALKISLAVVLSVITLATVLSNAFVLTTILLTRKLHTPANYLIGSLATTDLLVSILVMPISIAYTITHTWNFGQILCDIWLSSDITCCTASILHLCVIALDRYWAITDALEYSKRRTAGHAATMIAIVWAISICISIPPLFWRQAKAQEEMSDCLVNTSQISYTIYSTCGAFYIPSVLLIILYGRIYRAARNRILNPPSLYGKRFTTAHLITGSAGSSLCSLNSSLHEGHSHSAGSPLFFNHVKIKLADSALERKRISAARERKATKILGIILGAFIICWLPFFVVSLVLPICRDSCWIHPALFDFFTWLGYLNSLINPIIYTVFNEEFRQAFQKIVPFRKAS
T2 sequence (P28222 whole entry): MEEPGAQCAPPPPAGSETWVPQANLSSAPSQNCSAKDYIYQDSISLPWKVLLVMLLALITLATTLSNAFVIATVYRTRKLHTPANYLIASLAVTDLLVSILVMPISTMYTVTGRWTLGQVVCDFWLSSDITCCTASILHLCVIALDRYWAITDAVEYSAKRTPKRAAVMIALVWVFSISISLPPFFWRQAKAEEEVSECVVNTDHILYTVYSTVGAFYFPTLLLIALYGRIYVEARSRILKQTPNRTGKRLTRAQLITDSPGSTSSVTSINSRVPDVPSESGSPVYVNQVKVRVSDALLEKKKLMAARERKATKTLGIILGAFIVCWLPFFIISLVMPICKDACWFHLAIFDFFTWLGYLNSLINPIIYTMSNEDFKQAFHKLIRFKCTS
T3 sequence (P49144 whole entry): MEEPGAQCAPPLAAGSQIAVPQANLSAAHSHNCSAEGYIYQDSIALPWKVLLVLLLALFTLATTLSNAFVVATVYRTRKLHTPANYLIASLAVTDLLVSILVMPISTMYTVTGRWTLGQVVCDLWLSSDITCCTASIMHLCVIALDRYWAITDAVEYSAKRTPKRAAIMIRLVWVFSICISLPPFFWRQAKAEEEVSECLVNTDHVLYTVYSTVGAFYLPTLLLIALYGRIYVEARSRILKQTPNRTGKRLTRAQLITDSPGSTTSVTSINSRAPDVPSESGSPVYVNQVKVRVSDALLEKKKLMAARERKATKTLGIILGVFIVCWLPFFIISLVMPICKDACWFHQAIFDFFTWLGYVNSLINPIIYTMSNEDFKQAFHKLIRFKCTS

| Structure (SMILES) | inhibition at 0.1 µM (5-HT1Dα) | inhibition at 0.1 µM (5-HT1Dβ) | EC50 (5-HT1D receptor; [1]) | further results |
| --- | --- | --- | --- | --- |
| CN(C)CCc1c[nH]c2ccc(-c3ccc(Cl)s3)cc12 [Compound 9, 5-(5-Chlorothien-2-yl)-3-(2-N,N-dimethylaminoethyl)-1H-indole] | 97% | 83% |  |  |
| CN(C)CCc1c[nH]c2ccc(-c3ccsc3)cc12 [Compound 3, 3-(2-N,N-Dimethylaminoethyl)-5-(3-thienyl)-1H-indole] | 98% | 78% | 432 nM |  |
| NCCc1c[nH]c2ccc(-c3cccs3)cc12 [Compound 7, 3-(2-Aminoethyl)-5-(2-thienyl)-1H-indole] | 98% | 78% | 607 nM |  |
| c1csc(-c2ccc3[nH]cc(CCN4CCCC4)c3c2)c1 [Compound 11, 3-(2-Pyrrolidinylethyl)-5-(2-thienyl)-1H-indole] | 84% | 14% |  | EC50 (5-HT1D receptor): 2340 nM; Emax (5-HT1D receptor; rabbit isolated saphenous vein, maximum contraction vs KCl (80 mM), read-out: agonist type (maximum contraction relative to 80 mM KCl)): < 60% |
| CN1CCC[C@H]1Cc1c[nH]c2ccc(-c3cccs3)cc12 [Compound 6, 3-(N-Methylpyrrolidin-2S-ylmethyl)-5-(2-thienyl)-1H-indole] | 96% | 47% | 873 nM |  |
| CN(C)CCc1c[nH]c2ccc(-c3cccs3)cc12 [Compound 4, 3-(2-N,N-Dimethylaminoethyl)-5-(2-thienyl)-1H-indole] | 97% | 72% | 806 nM |  |
| CN1CCC[C@@H]1Cc1c[nH]c2ccc(-c3cccs3)cc12 [Compound 1, 3-(N-Methylpyrrolidin-2R-ylmethyl)-5-(2-thienyl)-1H-indole] | 98% | 84% | 121 nM |  |
| CN(C)CC(O)c1c[nH]c2ccc(-c3ccsc3)cc12 (racemic) [Compound 10, (±)-3-(2-N,N-Dimethylamino-1-hydroxylethyl)-5-(3-thienyl)-1H-indole] | 93% | 42% | 888 nM |  |
| CN1CCC[C@@H]1Cc1c[nH]c2ccc(-c3ccc(C(N)=O)s3)cc12 [5-(5-carbamoyl-2-thienyl)-3-(1-methylpyrrolidin-2(R)-ylmethyl)-1H-indole] |  |  |  | 5-HT1 receptor activity (5-HT1 receptor): some 5-HT1 receptor activity |
| CN1CCC[C@@H]1Cc1c[nH]c2ccc(-c3ccsc3)cc12 [Compound 2, 3-(N-Methylpyrrolidin-2R-ylmethyl)-5-(3-thienyl)-1H-indole] | 99% | 83% | 140 nM |  |
| CN(C)CCc1c[nH]c2ccc(-c3ccc(CO)s3)cc12 [Compound 5, 3-(2-N,N-Dimethylaminoethyl)-5-(5-hydroxymethylthienyl-2-yl)-1H-indole] | 96% | 77% |  |  |
| CNS(=O)(=O)Cc1ccc2[nH]cc(CCN(C)C)c2c1 [Sumatriptan] | 95% |  |  | binding affinity for 5-HT1F (5-HT1F): high affinity; binding affinity for 5-HT1D (5-HT1D): high affinity; binding to other 5-HT receptors (other 5-HT receptors): substantial exclusion of other 5-HT receptors |
| Cc1ccc(-c2ccc3[nH]cc(CCN(C)C)c3c2)s1 [Compound 12, 3-(2-N,N-Dimethylaminoethyl)-5-(5-methylthien-2-yl)-1H-indole] | 87% | 52% |  |  |
| CN1CCC(c2c[nH]c3ccc(-c4cccs4)cc23)C1 (racemic) [Compound 8, 3-(N-Methylpyrrolidin-3-yl)-5-(2-thienyl)-1H-indole] | 95% | 68% | 1730 nM |  |
